What was measured:
[1] = molecular target: T1, p38 (Homo sapiens, UniProt Q16539); test: Biochemical inhibition, standard selectivity panel (Proteros); design: dose or concentration left out as unconfirmed
T1 construct: purchased Proteros biostructures GmbH (selectivity panel service)
Protocol: (§1) For example, selected compound of the present invention were tested in a standard selectivity panel including c-Raf, p38, and 22 other kinases (Proteros biostructures GmbH, Martinsried/Munich, Germany), under conditions of non-disclosure, non-dissemination and non-use.
(§2) In brief, selected compounds of the present invention were tested […] in triplicates against c-Raf, p38 as well as against Ab1, Akt1, Aur A, c-Kit, c-Raf, Cdk1/CycB, Chk1, FGFR3, Flt3, Fyn, IGF1-R, INSR, Lyn, MAPK-ERK1, PAK-4, PKCalpha, Plk1, Ret, ROCK2, RSK 1, c-Src, TIE2, and VEGF-R2.

[2] = molecular target: T2, C-Raf (Homo sapiens, UniProt P04049); test: as above; design: dose or concentration left out as unconfirmed
T2 construct: purchased Proteros biostructures GmbH (selectivity panel service)
T2 sequence (P04049 whole entry): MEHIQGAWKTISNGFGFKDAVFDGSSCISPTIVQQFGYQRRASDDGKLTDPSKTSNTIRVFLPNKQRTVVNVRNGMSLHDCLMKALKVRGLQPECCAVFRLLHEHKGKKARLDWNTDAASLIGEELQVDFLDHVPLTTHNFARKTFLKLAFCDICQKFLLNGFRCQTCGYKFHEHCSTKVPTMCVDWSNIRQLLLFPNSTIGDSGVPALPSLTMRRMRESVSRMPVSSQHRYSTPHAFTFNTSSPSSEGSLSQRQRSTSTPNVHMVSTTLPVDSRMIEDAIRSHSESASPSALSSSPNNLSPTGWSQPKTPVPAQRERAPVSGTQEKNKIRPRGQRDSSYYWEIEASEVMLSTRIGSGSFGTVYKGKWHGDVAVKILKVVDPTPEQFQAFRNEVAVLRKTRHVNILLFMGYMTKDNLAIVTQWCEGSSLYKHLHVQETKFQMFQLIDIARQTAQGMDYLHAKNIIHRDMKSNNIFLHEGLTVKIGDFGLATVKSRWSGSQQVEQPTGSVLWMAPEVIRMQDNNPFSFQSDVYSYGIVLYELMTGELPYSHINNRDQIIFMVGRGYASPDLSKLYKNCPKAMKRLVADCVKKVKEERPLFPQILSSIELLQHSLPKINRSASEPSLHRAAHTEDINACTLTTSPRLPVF
Protocol: as §1, §2

[3] = tested on: A-431 [B-Raf wildtype]; test: Anti-proliferative activity, SRB assay, 72 hours; assay type: cell-based; settings: Homo sapiens, read-out: CELLULAR IC50 [μM] A-431 [B-Raf wildtype]
Protocol: (§3) Cells were exposed to the test compounds at various concentrations appropriate to determine an IC50, for 72 hours, and cell proliferation was measured using the SRB assay according to Shekan et al (J Natl Cancer Inst (1990) 82, 1107-112) in order to estimate the IC50 values shown in Table 3.
(§4) Briefly, cells were plated in 96 well dishes 24 hours prior to compound addition at the densities specified in Table 11.1.
(§5) The assay was terminated with the addition of ice cold 10% TCA after growth medium has been removed and the plates were incubated over night at 4° C. The plates were then washed 5 times with water and 100 μl of a Sulforhodamine B solution ([…]) was added to each well. The plates were then incubated for 10 minutes at room temperature before removal of unbound dye by washing with 1% acetic acid. The bound dye was solubilized with 10 mM Trizma base and the absorbance read at OD520.
(§6) Inhibitory activity of the compounds was calculated as % inhibition of cell proliferation compared to cells treated with the solvent (DMSO).

[4] = tested on: HT-29 [B-Raf V600E mutant]; test: Anti-proliferative activity, SRB assay, 72 hours; assay type: cell-based; settings: Homo sapiens, read-out: CELLULAR IC50 [μM] HT-29 [B-Raf V600E mutant]
Protocol: We observed the surprising finding that compounds of the invention were useful in inhibiting proliferation of HT-29 tumor cells (see Table 3).
as §3, §4, §5, §6

T1 sequence (Q16539 whole entry): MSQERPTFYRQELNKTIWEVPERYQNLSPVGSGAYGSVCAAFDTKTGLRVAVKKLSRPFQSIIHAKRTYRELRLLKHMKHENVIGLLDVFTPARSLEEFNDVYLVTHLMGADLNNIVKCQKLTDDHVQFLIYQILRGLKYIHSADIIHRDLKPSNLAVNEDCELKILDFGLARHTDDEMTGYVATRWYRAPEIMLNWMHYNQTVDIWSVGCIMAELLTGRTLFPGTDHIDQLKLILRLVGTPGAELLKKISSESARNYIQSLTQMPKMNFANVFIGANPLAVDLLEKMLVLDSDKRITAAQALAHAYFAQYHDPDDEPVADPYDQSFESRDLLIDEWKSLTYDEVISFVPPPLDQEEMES

| inhibition [1] [%] | inhibition [2] [%] | IC50 [3] [µM] | IC50 [4] [µM] | Structure (SMILES) |
| --- | --- | --- | --- | --- |
| > 70 | > 70 | > 10 | < 5 | COn1c(=O)c(-c2cc(NC(=O)c3cc(C(F)(F)F)ccc3F)ccc2Cl)cc2cnc(NCCN(C)C)nc21 [Compound 23, N-{4-Chloro-3-[2-(2-dimethylamino-ethylamino)-8-methoxy-7-oxo-7,8-dihydro-pyrido[2,3-d]pyrimidin-6-yl]-phenyl]-2-fl uoro-5-trifluoromethyl-benzamide] |
| > 70 | > 70 | > 10 | < 5 | COn1c(=O)c(-c2cc(NC(=O)c3cccc(C(F)(F)F)c3)ccc2Cl)cc2cnc(NCCN(C)C)nc21 [Compound 24, N-{4-Chloro-3-[2-(2-dimethylamino-ethylamino)-8-methoxy-7-oxo-7,8-dihydro-pyrido[2,3-d]pynmidin-6-yl]-phenyl}-3-trifluoromethyl-benzamide] |
| > 70 | > 70 | > 10 | < 10 | COn1c(=O)c(-c2cc(NC(=O)c3ccnc(N4CCOCC4)c3)ccc2Cl)cc2cnc(NCCN(C)C)nc21 [Compound 26, N-{4-Chloro-3-[2-(2-dimethylamino-ethylamino)-8-methoxy-7-oxo-7,8-dihydro-pyrido[2,3-d]pyrimidin-6-yl]-phenyl)-2-morpholin-4-yl-isonicotinamide] |
| > 70 | > 70 | < 10 | < 5 | COn1c(=O)c(-c2cc(NC(=O)c3ccc(Oc4ccccc4)cc3)ccc2Cl)cc2cnc(NCCN(C)C)nc21 [Compound 27, N-{4-Chloro-3-[2-(2-dimethylamino-ethylamino)-8-methoxy-7-oxo-7,8-dihydro-pyrido[2,3-d]pyrimidin-6-yl]-phenyl}-4-phenoxy-benzamide] |
| > 70 | > 70 | > 10 | < 5 | COn1c(=O)c(-c2cc(NC(=O)c3cc(F)cc(C(F)(F)F)c3)ccc2Cl)cc2cnc(NCCN(C)C)nc21 [Compound 28] |
| > 70 | > 70 | > 10 | < 5 | COn1c(=O)c(-c2cc(NC(=O)c3ccc(Cl)c(OC(F)(F)F)c3)ccc2Cl)cc2cnc(NCCN(C)C)nc21 [Compound 30, 4-Chloro-N-(4-chloro-3-[2-(2-dimethylamino-ethylamino)-8-methoxy-7-oxo-7,8-dihydro-pyrido[2,3-d]pyrimidin-6-yl]-phenyl}-3-trifluoromethoxy-benzamide] |
| > 70 | ~70 | < 10 | < 5 | COn1c(=O)c(-c2cc(NC(=O)c3cc(C(C)(C)C)nn3-c3ccccc3)ccc2Cl)cc2cnc(NCCN(C)C)nc21 [Compound 31, 5-tert-Butyl-2-phenyl-2H-pyrazole-3-carboxylic acid {4-chloro-3-[2-(2-dimethylamino-ethylamino)-8-methoxy-7-oxo-7,8-dihydro-pyrido[2,3-d]pyrimidin-6-yl]-phenyl}-amide] |
| > 70 | > 70 | < 10 | < 5 | COn1c(=O)c(-c2cc(NC(=O)c3ccc(OCc4cccc(F)c4)c(Cl)c3)ccc2Cl)cc2cnc(NCCN(C)C)nc21 [Compound 32, 3-Chloro-N-{4-chloro-3-[2-(2-dimethylamino-ethylamino)-8-methoxy-7-oxo-7,8-dihydro-pyrido[2,3-d]pyrimidin-6-yl]-phenyl}-4-(3-fluoro-benzyloxy)-benzamide] |
| > 70 | > 70 | < 10 | < 5 | COn1c(=O)c(-c2cc(NC(=O)c3ccc(C(C)(C)C)cc3)ccc2Cl)cc2cnc(NCCN(C)C)nc21 [Compound 37, 4-tert-Butyl-N-{4-chloro-3-[2-(2-dimethylamino-ethylamino)-8-methoxy-7-oxo-7,8-dihydro-pyrido[2,3-d]pyrimidin-6-yl]-phenyl)-benzamide] |
| > 70 | > 70 | < 10 | < 5 | COn1c(=O)c(-c2cc(NC(=O)Nc3ccc(C(F)(F)F)cc3)ccc2Cl)cc2cnc(NCCN(C)C)nc21 [Compound 41, 1-{4-Chloro-3-[2-(2-dimethylamino-ethylamino)-8-methoxy-7-oxo-7,8-dihydro-pyrido[2,3-d]pyrimidin-6-yl]-phenyl}-3-(4-trifluoromethyl-phenyl)-urea] |
| > 70 | > 70 | < 10 | < 5 | COn1c(=O)c(-c2cc(NC(=O)Nc3ccc(F)c(C(F)(F)F)c3)ccc2Cl)cc2cnc(NCCN(C)C)nc21 [Compound 42, 1-{4-Chloro-3-[2-(2-dimethylamino-ethylamino)-8-methoxy-7-oxo-7,8-dihydro-pyrido[2,3-d]pyrimidin-6-yl]-phenyl}-3-(4-fluoro-3-trifluoromethyl-phenyl)-urea] |
| > 70 | > 70 | > 10 | < 5 | COn1c(=O)c(-c2cc(NC(=O)Nc3cccc(Cl)c3)ccc2Cl)cc2cnc(NCCN(C)C)nc21 [Compound 43, 1-{4-Chloro-3-[2-(2-dimethylamino-ethylamino)-8-methoxy-7-oxo-7,8-dihydro-pyrido[2,3-d]pyrimidin-6-yl]-phenyl}-3-(3-chloro-phenyl)-urea] |
| > 70 | > 70 | < 5 | < 5 | COn1c(=O)c(-c2cc(NC(=O)Nc3ccc(C(C)(C)C)cc3)ccc2Cl)cc2cnc(NCCN(C)C)nc21 [Compound 44, 1-(4-tert-Butyl-phenyl)-3-{4-chloro-3-[2-(2-dimethylamino-ethylamino)-8-methoxy-7-oxo-7,8-dihydro-pyrido[2,3-d]pyrimidin-6-yl]-phenyl}-urea] |
| > 70 | > 70 | > 5 | < 5 | COn1c(=O)c(-c2cc(NC(=O)Nc3ccc(C)c(C(F)(F)F)c3)ccc2Cl)cc2cnc(NCCN(C)C)nc21 [Compound 47, 1-{4-Chloro-3-[2-(2-dimethylamino-ethylamino)-8-methoxy-7-oxo-7,8-dihydro-pyrido[2,3-d]pyrimidin-6-yl]-phenyl}-3-(4-methyl-3-trifluoromethyl-phenyl)-urea] |
| > 70 | > 70 | < 10 | < 5 | COn1c(=O)c(-c2cc(NC(=O)Nc3cc(C(F)(F)F)cc(C(F)(F)F)c3)ccc2Cl)cc2cnc(NCCN(C)C)nc21 [Compound 50, 1-(3,5-Bis-trifluoromethyl-phenyl)-3-{4-chloro-3-[2-(2-dimethylamino-ethylamino)-8-methoxy-7-oxo-7,8-dihydro-pyrido[2,3-d]pyrimidin-6-yl]-phenyl}-urea] |
| > 70 | > 70 | > 10 | < 5 | COn1c(=O)c(-c2cc(NC(=O)c3cc(Cl)nc(N4CCOCC4)c3)ccc2Cl)cc2cnc(NCCN(C)C)nc21 [Compound 61, 2-Chloro-N-(4-chloro-3-(2-(2-(dimethylamino)ethylamino)-8-methoxy-7-oxo-7,8-dihydropyrido[2,3-d]pyrimidin-6-yl)phenyl)-6-morpholin-4-yl-isonicotinamide] |
| > 70 | > 70 | > 10 | < 5 | COn1c(=O)c(-c2cc(NC(=O)c3cc(Cl)nc(NC(C)C)c3)ccc2Cl)cc2cnc(NCCN(C)C)nc21 [Compound 64, 2-Chloro-N-(4-chloro-3-(2-(2-(dimethylamino)ethylamino)-8-methoxy-7-oxo-7,8-dihydropyrido[2,3-d]pyrimidin-6-yl)phenyl)-6-isopropylamino-isonicotinamide] |

— patent US8232283B2, “Raf inhibitors” (Forma Therapeutics, Inc., priority 2008, dated 2012)
